Our source for the IC50 values is ChEMBL document CHEMBL1138402, “CCR5 receptor antagonists: discovery and SAR study of guanylhydrazone derivatives” (Bioorg Med Chem Lett, 2007).

The structures appear in SMILES notation.

For the assay, the target named is C-C chemokine receptor type 5 (Homo sapiens, UniProt P51681). The assay is described as follows: Displacement of [125I]MIP1-alpha from human CCR5/CD4 expressed in HEK293 cells. Type of assay: cell-based.
Sequence of C-C chemokine receptor type 5 (P51681 whole entry): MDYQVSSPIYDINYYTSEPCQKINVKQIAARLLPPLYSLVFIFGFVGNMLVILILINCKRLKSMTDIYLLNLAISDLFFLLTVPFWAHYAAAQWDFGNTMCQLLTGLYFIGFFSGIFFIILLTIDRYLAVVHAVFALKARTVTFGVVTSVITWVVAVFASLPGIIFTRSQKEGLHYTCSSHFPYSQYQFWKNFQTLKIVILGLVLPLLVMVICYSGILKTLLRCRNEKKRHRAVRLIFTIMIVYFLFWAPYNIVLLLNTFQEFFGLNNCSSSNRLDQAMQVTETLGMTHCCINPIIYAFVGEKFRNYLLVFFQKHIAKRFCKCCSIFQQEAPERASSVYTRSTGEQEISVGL
One may read the IC50 as the point on the concentration scale where inhibition reaches its midpoint. Read a low IC50 as greater potency in that assay. `Clc1ccc(COc2ccc(Br)cc2/C=N/NC2=NCCN2)cc1` showed an IC50 of 750 nM.
Next, `N=C(N)N/N=C/c1cc([N+](=O)[O-])ccc1OCc1ccc(Cl)cc1`: 1200 nM; `N=C(N)N/N=C/c1cc(Br)ccc1OCc1ccc(F)cc1F`: 3700 nM; `N#Cc1ccc(COc2ccc(Br)cc2/C=N/NC(=N)N)cc1`: 480 nM.
In turn, `N=C(N)N/N=C/c1cc(Br)ccc1OCc1ccccc1[N+](=O)[O-]` yielded an IC50 of 5700 nM.
Next, `N=C(N)N/N=C/c1cc(Br)ccc1OCc1cccc2ccccc12`: 1100 nM; `N=C(N)N/N=C/c1cc(Br)ccc1OCc1ccc(Br)cc1`: 600 nM; `COC(=O)c1cccc(COc2ccc(Br)cc2/C=N/NC(=N)N)c1`: 1600 nM.
Next, `CCN(CC)c1ccc(OCc2ccc(Cl)cc2)c(/C=N/NC(=N)N)c1`: greater than 30000 nM; `Clc1ccc(COc2ccc(Br)cc2/C=N/NC2=NCCCN2)cc1`: 2000 nM.
Next, `N#Cc1ccc(OCc2ccc(Cl)cc2)c(/C=N/NC(=N)N)c1`: 600 nM; `N=C(N)N/N=C/c1ccc(Cl)cc1OCc1ccc(Cl)cc1`: greater than 30000 nM; `COc1ccc([N+](=O)[O-])cc1COc1ccc(Br)cc1/C=N/NC(=N)N`: 8700 nM.
In the case of `N#Cc1cccc(COc2ccc(Br)cc2/C=N/NC(=N)N)c1`, the IC50 was 2000 nM.
Next, `N=C(N)N/N=C/c1ccccc1OCc1ccc(Cl)cc1`: greater than 30000 nM; `CCN(CC)Cc1cc(Br)ccc1OCc1ccc(Cl)cc1`: 1400 nM.
Next, `N=C(N)N/N=C/c1cc(Br)ccc1OCc1ccc(Cl)cc1`: 840 nM; `CN(C)Cc1cc(Br)ccc1OCc1ccc(Cl)cc1`: 600 nM; `CC(C)(C)c1ccc(OCc2ccc(Cl)cc2)c(/C=N/NC(=N)N)c1`: greater than 30000 nM.
Next, `Cc1ccc(COc2ccc(Br)cc2/C=N/NC(=N)N)cc1`: 500 nM; `CN(/N=C/c1cc(Br)ccc1OCc1ccc(Cl)cc1)C1=NCCN1`: 14000 nM.
In turn, `N=C(N)N/N=C/c1cc(Cl)ccc1OCc1ccc(Cl)cc1` registered an IC50 of 600 nM.
In the case of `CC(C)C/C(=N\NC(=N)N)c1cc(Cl)ccc1OCc1ccc(F)cc1`, the IC50 was greater than 30000 nM.
Next, `COC(=O)c1ccc(COc2ccc(Br)cc2/C=N/NC(=N)N)cc1`: 1300 nM; `N=C(N)N/N=C/c1cccc(Cl)c1OCc1ccc(Cl)cc1`: greater than 30000 nM.
Next, `N=C(N)N/N=C/c1cc(Br)ccc1OCc1ccc([N+](=O)[O-])cc1`: 900 nM; `COc1ccc(COc2ccc(Br)cc2/C=N/NC(=N)N)cc1`: 700 nM.
Next, `Cc1cccc(COc2ccc(Br)cc2/C=N/NC(=N)N)c1`: 1700 nM; `N=C(N)N/N=C/c1cc(N)ccc1OCc1ccc(Cl)cc1`: greater than 30000 nM; `N=C(N)N/N=C/c1cccc(F)c1OCc1ccc(Cl)cc1`: greater than 30000 nM.
Consider `C/C(=N\NC(=N)N)c1cc(Br)ccc1OCc1ccc(Cl)cc1`, for which the concentration for half-maximal inhibition (IC50) was 200 nM.
Next, `C/C(=N/NC(=N)N)c1cc(Cl)ccc1OCc1ccc(Cl)cc1`: 8500 nM; `N=C(N)N/N=C/c1cc(Br)ccc1OCc1ccc(OCc2ccccc2)cc1`: 2900 nM.
Next, `COc1cc(Br)cc(/C=N/NC(=N)N)c1OCc1ccc(Cl)cc1`: greater than 30000 nM; `Clc1ccc(COc2ccc(Br)cc2CN2CCOCC2)cc1`: 1000 nM.
Next, `N=C(N)N/N=C/c1cc(F)ccc1OCc1ccc(Cl)cc1`: 3400 nM; `N=C(N)N/N=C/c1cc(Br)ccc1OCc1ccc(F)cc1`: 800 nM; `C/C(=N\NC(=N)N)c1cc(Cl)ccc1OCc1ccc(Cl)cc1`: 140 nM.
`CC/C(=N\NC(=N)N)c1cc(Br)cc(OC)c1OCc1ccc(Cl)cc1` registered an IC50 of 400 nM.
Next, `N=C(N)N/N=C/c1cc(Br)ccc1OCc1ccc(-c2ccccc2)cc1`: 1700 nM.
Next, `COc1cc(Br)cc(/C(C)=N/NC(=N)N)c1OCc1ccc(C#N)cc1`: 93 nM; `CCCC/C(=N\NC(=N)N)c1cc(Cl)ccc1OCc1ccc(F)cc1`: 4200 nM; `COC(=O)c1ccc(OCc2ccc(Cl)cc2)c(/C=N/NC(=N)N)c1`: greater than 30000 nM.
Next, `N=C(N)N/N=C/c1cc(Br)ccc1OCc1ccccc1`: 1900 nM; `N=C(N)N/N=C/c1cc(Cl)cc(Cl)c1OCc1ccc(Cl)cc1`: 3100 nM.
In the case of `N=C(N)N/N=C/c1cc(Br)ccc1OCc1cccc(C(=O)O)c1`, the IC50 worked out at 39000 nM.
Next, `N=C(N)N/N=C/c1cc(Br)ccc1OCc1cccc([N+](=O)[O-])c1`: 1700 nM.
